For data set [1], the system named is Salmonella typhimurium tester strains TA97a, TA98, TA100, TA102, TA1537 and TA1538. An excerpt:
The second property that is important in testing a compound for use in methods described herein is mutagenicity. The most widely used mutagen/carcinogen screening assay is the Ames test. This assay is described by D.M. Maron and B.N. Ames in Mutation Research 113:173 ( 1983) and a specific screen is described in detail in Example 17, below. The Ames test utilizes several unique strains of Salmonella typhimurium that are histidine- dependent for growth and that lack the usual DNA repair enzymes. The frequency of normal mutations that render the bacteria independent of histidine (i.e., the frequency of spontaneous revertants) is low. The test allows one to evaluate the impact of a compound on this revenant frequency.
Because some substances are not mutagenic by themselves, but are converted to a mutagen by metabolic action, the compound to be tested is mixed with the bacteria on agar plates along with the liver extract. The liver extract serves to mimic metabolic action in an animal.
The mixtures are allowed to incubate. Growth of bacteria (if any) is checked by counting colonies.
In this example the compounds described herein are tested for their dark mutagenicity using an Ames assay. The procedures used for the Salmonella mutagenicity test as described in detail by Maron and Ames were followed exactly. Maron, D.M. and B.N. Ames, Mutation Research 113: 173 ( 1983). A brief description for each procedure is given here. The tester strains TA97a, TA98, TA 100, TA102, TA1537 and TA1538 were obtained from Dr. Ames. TA97a, TA98, TA1537 and TA1538 are frameshift tester strains. TA100 and TA102 are base-substitution tester strains. Upon receipt each strain was cultured under a variety of conditions to confirm the genotypes specific to the strains.
The first tests done with the strains were to determine the range of spontaneous reversion for each of the strains. With each mutagenicity experiment the spontaneous reversion of the tester strains to histidine independence was measured and expressed as the number of spontaneous revertants per plate. This served as the background controls.
For all experiments, the pre-incubation procedure was used. In this procedure one vial of each tester strain was thawed and 20 µL of this culture was added to 6 mL of Oxoid Nutrient Broth #2. This solution was allowed to shake for 10 hours at 37°C. In the pre-incubation procedure, 0.1 mL of this overnight culture was added to each of the required number of sterile test tubes. To half of the tubes 0.5 mL of a 10% S-9 solution containing Aroclor 1254 induced rat liver extract (Molecular Toxicology Inc., Annapolis, MD), and MgCl2, KCl, glucose-6-phosphate, NADP, and sodium phosphate buffer (Sigma, St. Louis, Missouri) were added. To the other half of the tubes 0.5 mL of 0.2M sodium phospate buffer, pH 7.4, was used in place of the S-9 mixture (the - S9 samples). Finally 0.1 mL of the test solution containing either 0, 0.1, 0.5, 1, 5, 10, 50, 100, 250, or 500 µg/mL of the test compound was added. The 0.7 mL mixture was vonexed and then pre-incubated while shaking for 20 minutes at 37°C. After shaking, 2 mL of molten top agar supplemented with histidine and biotin were added to the 0.7 mL mixture and immediately poured onto a minimal glucose agar plate (volume of base agar was 20 mL). The top agar was allowed 30 minutes to solidify and then the plates were inverted and incubated for 44 hours at 37°C. After incubation the number of revertant colonies on each plate were counted.
Maron and Ames (1983) describe the conflicting views with regard to the statistical treatment of data generated from the test.

Data set [2] relates to HIV-1. The following applies: 1 Minute Irradiation.
Description: Pathogen inactivation efficiency of several compounds described herein was evaluated by examining the ability of the compounds to inactivate cell-free virus (HIV). Inactivation of cell-free HIV was performed as follows.
As in the R17 assay, small aliquots of the compounds listed in TABLES 10 and 11, below, at the concentrations listed in the table, were added to stock HIV-1 to a total of 0.5 mL. The stock HIV (10^5 - 10^7 plaque forming units/mL) was in DMEM/15% FBS. […] Controls included HIV-I stock only, HIV-1 plus UVA only, and HIV-I plus the highest concentration of each psoralen tested, with no UVA. Post irradiation. all samples were store frozen at -70° C until assayed for infectivity by a microtiter plaque assay. Aliquots for measurement of residual HIV infectivity in the samples treated with a compound of the present invention were withdrawn and cultured.
Residual HIV infectivity was assayed using an MT-2 infectivity assay. […] The assay medium was 85% DMEM (with a high glucose concentration) containing 100 µg of streptomycin, 100 U of penicillin, 50 µg of gentamicin, and 1 µg of amphotericin B per mL, 15% FBS and 2 µg of Polybrene (Sigma Chemical Co., St. Louis, Mo.) per mL. Test and control samples from the inactivation procedure were diluted in 50% assay medium and 50% normal human pooled plasma. The samples were serially diluted directly in 96-well plates (Coming Glass Works, Coming, N.Y.). The plates were mixed on an oscillatory shaker for 30 seconds and incubated at 37°C in a 5% CO2 atmosphere for 1 to 18 hours. […] After an additional 1 hour of incubation at 37°C in 5% CO2, 0.075 mL of assay medium containing 1.6% SeaPlaque agarose (FMC Bioproducts, Rockland, Maine) and prewarmed to 38.5°C was added to each well. The plates were kept at 37°C for a few minutes until several plates had accumulated and then centrifuged in plate carriers at 600 x g for 20 minutes in a centrifuge precooled to 10°C. In the centrifuge, cell monolayers formed prior to gelling of the agarose layer. The plates were incubated for 5 days at 37°C in 5% CO2 and stained by the addition of 0.05 mL of 50 µg/mL propidium iodide (Sigma Chemical Co.) in phosphate-buffered saline (pH 7.4) to each well. After 24 to 48 hours, the red fluorescence-stained microplaques were visualized by placing the plates on an 8,000 µW/cm^2 304 nm UV light box (Fotodyne, Inc., New Berlin, Wis.). The plaques were counted at a magnification of x20 to x25 through a stereomicroscope.
For data set [3], the system named is R17. Kind of data set: r-17 bacteriophage assay: R17 treated with compound and UVA, remaining titer by plaque count on Hfr 3000 bacteria. The class given is cell-based. The following applies: for R17 inactivation efficiency compared with AMT: varying concentration (Tables 7 and 8, FIGS. 6-10); for efficiency at inactivating R17 compared with AMT: constant concentration, varying doses of UV light 1.0-3.0 J/cm^2 (FIGS. 11-17). On the procedure: In the r-17 assay, the bacteriophage was placed in a solution with each compound tested and was then irradiated. The ability of the phage to subsequently infect bacteria and inhibit their growth was measured. The bacteriophage was selected for its relatively accessible nucleic acid such that the culture growth inhibition would accurately reflect nucleic acid damage by the test compounds. The bacteriophage assay for nucleic acid binding to test compounds offers a safe and inexpensive procedure to identify compounds likely to display efficient pathogen inactivation. Previous experiments support that the r-17 assay accurately measures HIV-1 sensitivity to similar compounds. […] Modified Eagles Medium (DMEM) to a final phage concentration of 10^9/mL. An aliquot (0.5 mL) was transferred to a 1.5 mL snap-top polyethylene tube. […] Louis, MO). The tubes were placed in a light device as described in EXAMPLE 1 and irradiated for between 1 and 10 minutes. […] To make the dilutions. a 0.100 mL aliquot of the irradiated solution of phage and test compound was added to the first dilution tube of 0.4 mL of media then 0.020 mL of this solution was added to the second tube of 0.5 mL medium (1:25). […] After the top agar hardened, the plates were incubated at 37 °C overnight. The plaque forming units were then counted the following morning and the titer of the phage remaining after phototreatment was calculated based on the dilution factors. The following controls were run: the "phage only" in which phage was not treated with test compound and not irradiated (listed as "starting titer" in the tables below); the "UV only" in which the phage was irradiated in the absence of test compound; and the "dark" control in which the phage/test compound solution was not irradiated before it was diluted and plated. Compounds described herein were also tested at a constant concentration for varying doses of UV light. […] The compound tested was added at the desired concentration and the samples were vortexed. […] Between each 1.0 J/cm^2 intervals, 100µL was removed from each sample and placed in the first corresponding dilution tube, then five sequential dilutions were performed for each compound tested, at all 3 irradiation doses, as described above in this example. […] The contents of each tube was poured into its own LB plate and the plates were incubated overnight at 37 °C. Plaques were counted by visual inspection the following morning.

Where [4] appears, read: 64 µM, HIV Starting Titer Approximately 5 Logs (Table 10).
Where [5] appears, read: 16 µM, HIV Starting Titer Approximately 5 Logs (Table 10).
Setting [6] is: 32 µM, HIV Starting Titer Approximately 5 Logs (Table 10).
Setting [7] is: 16 µM, HIV Starting Titer Approximately 5.4 Logs (Table 11).
Setting [8] is: 32 µM, HIV Starting Titer Approximately 5.4 Logs (Table 11).
Setting [9] is: 64 µM, HIV Starting Titer Approximately 5.4 Logs (Table 11).

Structures are written as SMILES. Like-named read-outs stand apart in the source and are kept apart here.

As for `Nc1c2ccccc2nc2ccccc12` [9-Amino-acridine, reference compound], in data set [1] (10 µg/plate), the “revertant colonies, TA98 -S9” value was determined as 284 and the “revertant colonies, TA1537 -S9” value was 284.

With `Cc1oc2c(C)c3oc(=O)cc(C)c3cc2c1CNCCN` [Compound 1, 4'-(4-amino-2-aza)butyl-4,5',8-trimethylpsoralen], in data set [1] (5 µg/plate), the “revertant colonies, TA100 +S9” value is on record as -24; the “revertant colonies, TA100 -S9” value turned out to be 292; the “revertant colonies, TA1538 +S9” value amounted to 21; the “revertant colonies, TA1538 -S9” value is 10. Further, in data set [1] (10 µg/plate), the “revertant colonies, TA100 +S9” value is -22; the “revertant colonies, TA100 -S9” value was found to be 337; the “revertant colonies, TA1538 +S9” value worked out at 22; the “revertant colonies, TA1538 -S9” value is on record as 12. Further, in data set [1] (two-fold or greater increase in revertants above background and dose dependent response), the “frameshift mutagenicity (Ames, summary)” value is “weak frameshift mutagen in TA1538 at 5 µg/plate in the presence of S9”. Besides, in data set [1] (two-fold or greater increase in revertants above background and dose dependent response, TA100, TA102), the “base-substitution mutagenicity (Ames, summary)” value is listed as “displayed mutation in the TA100 strain, but only in the absence of S9”. Further, the “HIV Log Kill” value in data set [2] (setting [4]) is 2.1. In addition, the “Logs Killed” value in data set [3] (Experiment 2, compound only (3.2 µM), no uva) stood at 0.1.

In the case of `Cc1oc2c(C)c3oc(=O)cc(C)c3cc2c1CNCCCN` [Compound 5, 4'-(5-amino-2-aza)pentyl4,5',8-trimethylpsoralen], the “HIV Log Kill” value in data set [2] (setting [5]) was 0.9; in data set [2] (setting [6]) it was 1.3; in data set [2] (setting [4]), greater than 2.6. Besides, the “R17 Log Kill” value in data set [3] (16 µM, 1 Minute irradiation = 1.2 J/cm^2, Starting Titer Approx. 7.1 Logs (Table 8)) was 5.6; in data set [3] (32 µM, 1 Minute irradiation = 1.2 J/cm^2, Starting Titer Approx. 7.1 Logs (Table 8)), greater than 6.1; in data set [3] (64 µM, 1 Minute irradiation = 1.2 J/cm^2, Starting Titer Approx. 7.1 Logs (Table 8)), greater than 6.1. Besides, the “R17 inactivation efficiency compared with AMT” value in data set [3] is recorded as “significantly higher inactivation efficiency than does AMT”.

Turning to `Cc1oc2c(C)c3oc(=O)cc(C)c3cc2c1COCCOCCN` [Compound 7, 4'-(7-amino-2,5-oxa)heptyl-4.5',8-trimethylpsoralen], the “HIV Log Kill” value in data set [2] (setting [5]) amounted to 0.8; in data set [2] (setting [6]), 2.1; in data set [2] (setting [4]) it was 3.5. Besides, the “R17 Log Kill” value in data set [3] (16 µM, 1 Minute Irradiation, Starting Titer Approx. 7.1 Logs (Table 9)) is listed as greater than 6; in data set [3] (32 µM, 1 Minute Irradiation, Starting Titer Approx. 7.1 Logs (Table 9)), greater than 6; in data set [3] (64 µM, 1 Minute Irradiation, Starting Titer Approx. 7.1 Logs (Table 9)), greater than 6.

As to `Cc1oc2c(C)c3oc(=O)cc(C)c3cc2c1COCCOCCNCCCCN` [Compound 8, 4'-(12-amino-8-aza-2,5-dioxa)dodecyl-4,5',8-trimethylpsoralen], the “HIV Log Kill” value in data set [2] (setting [5]) turned out to be 1.1; in data set [2] (setting [6]), 1.9; in data set [2] (setting [4]) it was 3.7.

As to `Cc1oc2c(C)c3oc(=O)cc(C)c3cc2c1CNCCCOCCCCOCCN` [Compound 9, 4'-(13-amino-2-aza-6,11-dioxa)tridecyl-4,5',8-trimethylpsoralen], the “HIV Log Kill” value in data set [2] (setting [7]) was found to be 0.8; in data set [2] (setting [8]), 1.4; in data set [2] (setting [9]), 2.7.

For `Cc1oc2c(C)c3oc(=O)cc(C)c3cc2c1CNCCCCCN` [Compound 10, 4'-(7-amino-2-aza)heptyl-4,5',8-trimethylpsoralen], the “HIV Log Kill” value is 2.0 in data set [2] (setting [7]), greater than 3.5 in data set [2] (setting [8]) and greater than 3.5 in data set [2] (setting [9]). Besides, the “efficiency at inactivating R17 compared with AMT” value in data set [3] is listed as “more efficient at inactivating R17 than was AMT”.

`Cc1oc2c(C)c3oc(=O)cc(C)c3cc2c1CNCCCNCCCN` [Compound 12, 4'-(9-amino-2,6-diaza)nonyl-4.5',8-trimethylpsoralen]: the “HIV Log Kill” value is 0.4 in data set [2] (setting [7]), 0.8 in data set [2] (setting [8]) and 1.3 in data set [2] (setting [9]). In addition, in data set [3], the “efficiency at inactivating R17 compared with AMT” value is “more efficient at inactivating R17 than was AMT”.

Take `Cc1oc2c(C)c3oc(=O)cc(C)c3cc2c1CNCCCNCCCCNCCCN` [Compound 15, 4'-(14-amino-2,6,11-triaza)tetradecyl-4,5',8-trimethylpsoralen]: the “efficiency at inactivating R17 compared with AMT” value in data set [3] is recorded as “more efficient at inactivating R17 than was AMT”.

Take `Cc1cc(=O)oc2c(C)c3oc(CNCCN)c(C)c3cc12` [Compound 16, 5'-(4-amino-2-aza)butyl4,4',8-trimethylpsoralen]: the “R17 inactivation efficiency compared with AMT” value in data set [3] is “significantly higher inactivation efficiency than does AMT”.

With `OO` [hydrogen peroxide, reference compound], the “revertant colonies, TA102 -S9” value in data set [1] (Salmonella typhimurium, pH 7.4) came out at 660.

With `[N-]=[N+]=[N-]` [sodium azide, reference compound], the “revertant colonies, TA100 -S9” value in data set [1] (1.5 µg/plate (positive control)) was determined as 965. For the same molecule, in data set [1] (1.5 µg/plate (positive control), Table 18 (A), background 126), the “revertant colonies, TA1538 -S9 (Table 18 (A))” value amounted to 965.
